# Measurements from patent US6620828B2, “Thiazole compounds and pharmaceutical compositions for inhibiting protein kinases and methods for their use” (Agouron Pharmaceuticals, Inc., priority 1999, dated 2003).
# Test system: human umbilical vein endothelial cells (HUVEC)
# Assay: HUVEC proliferation assay
# Type: cell-based
# Details: Homo sapiens, HUVEC, 10 nM; crude combinatorial urea library; read-out: Inhibition of HUVEC Proliferation % inhibition @ 10 nM
# How it was run: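 Readout was MTT dye reduction (A595) after 72 h of stimulation with VEGF at 6 ng/ml final. Compound, in 0.1% DMSO final, was added 1 h before VEGF to HUVEC starved 24 h in 1% FBS. % inhibition was scaled between VEGF-alone and unstimulated wells; IC50 was fitted from triplicate dose curves.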
row,Structure (SMILES),inhibition at 0.01 µM
1,COc1cccc(C(=O)Nc2cccc(-c3csc(-c4sc(NC(=O)NCC(C)(C)C)nc4N)n3)c2)c1,44%
2,CNC(=O)CNC(=O)Nc1nc(N)c(-c2nc(-c3cccc(NC(=O)c4cccc(OC)c4)c3)cs2)s1,42%
3,CCC(O)CNC(=O)Nc1nc(N)c(-c2nc(-c3cccc(NC(=O)c4cccc(OC)c4)c3)cs2)s1 (centres unmarked),30%
4,COc1cccc(C(=O)Nc2cccc(-c3csc(-c4sc(NC(=O)NCCCn5ccnc5)nc4N)n3)c2)c1,9%
5,COc1cccc(C(=O)Nc2cccc(-c3csc(-c4sc(NC(=O)NCCNC(C)=O)nc4N)n3)c2)c1,20%
6,COc1cccc(C(=O)Nc2cccc(-c3csc(-c4sc(NCCC(=O)NCC(=O)O)nc4N)n3)c2)c1,-34%
7,COc1cccc(C(=O)Nc2cccc(-c3csc(-c4sc(NC(=O)NCc5ccc(S(N)(=O)=O)cc5)nc4N)n3)c2)c1,26%
8,COc1cccc(C(=O)Nc2cccc(-c3csc(-c4sc(NC(=O)NCCN5CCNC5=O)nc4N)n3)c2)c1,0%
9,COc1cccc(C(=O)Nc2cccc(-c3csc(-c4sc(NC(=O)NCC(C)N(C)C)nc4N)n3)c2)c1 (centres unmarked),-22%
10,COc1cccc(C(=O)Nc2cccc(-c3csc(-c4sc(NC(=O)NCCC5CCCN5C)nc4N)n3)c2)c1 (centres unmarked),39%
11,COc1cccc(C(=O)Nc2cccc(-c3csc(-c4sc(NC(=O)NCC(F)(F)F)nc4N)n3)c2)c1,20%

# Same assay, conditions: Homo sapiens, HUVEC, 50 nM; crude combinatorial urea library; read-out: Inhibition of HUVEC Proliferation % inhibition @ 50 nM
row,Structure (SMILES),inhibition at 0.05 µM
1,COc1cccc(C(=O)Nc2cccc(-c3csc(-c4sc(NC(=O)NCC(C)(C)C)nc4N)n3)c2)c1,34%
2,CNC(=O)CNC(=O)Nc1nc(N)c(-c2nc(-c3cccc(NC(=O)c4cccc(OC)c4)c3)cs2)s1,23%
3,CCC(O)CNC(=O)Nc1nc(N)c(-c2nc(-c3cccc(NC(=O)c4cccc(OC)c4)c3)cs2)s1 (centres unmarked),135%
4,COc1cccc(C(=O)Nc2cccc(-c3csc(-c4sc(NC(=O)NCCCn5ccnc5)nc4N)n3)c2)c1,39%
5,COc1cccc(C(=O)Nc2cccc(-c3csc(-c4sc(NC(=O)NCCNC(C)=O)nc4N)n3)c2)c1,77%
6,COc1cccc(C(=O)Nc2cccc(-c3csc(-c4sc(NCCC(=O)NCC(=O)O)nc4N)n3)c2)c1,7%
7,COc1cccc(C(=O)Nc2cccc(-c3csc(-c4sc(NC(=O)NCc5ccc(S(N)(=O)=O)cc5)nc4N)n3)c2)c1,36%
8,COc1cccc(C(=O)Nc2cccc(-c3csc(-c4sc(NC(=O)NCCN5CCNC5=O)nc4N)n3)c2)c1,35%
9,COc1cccc(C(=O)Nc2cccc(-c3csc(-c4sc(NC(=O)NCC(C)N(C)C)nc4N)n3)c2)c1 (centres unmarked),-3%
10,COc1cccc(C(=O)Nc2cccc(-c3csc(-c4sc(NC(=O)NCCC5CCCN5C)nc4N)n3)c2)c1 (centres unmarked),0%
11,COc1cccc(C(=O)Nc2cccc(-c3csc(-c4sc(NC(=O)NCC(F)(F)F)nc4N)n3)c2)c1,15%

# Same assay, conditions: Homo sapiens, HUVEC, Inhibition of HUVEC Proliferation; 50 nM; crude combinatorial urea library; read-out: % inhibition @ 50 nM
row,Structure (SMILES),inhibition at 0.05 µM
1,COc1cccc(C(=O)Nc2cc(-c3csc(-c4sc(NC(=O)NCCCN5CCCCCC5)nc4N)n3)c(F)cc2F)c1,86%
2,COc1cccc(C(=O)Nc2cc(-c3csc(-c4sc(NC(=O)NCCC(=O)NCC(=O)O)nc4N)n3)c(F)cc2F)c1,57%
3,COc1cccc(C(=O)Nc2cc(-c3csc(-c4sc(NC(=O)NCCN(C(C)C)C(C)C)nc4N)n3)c(F)cc2F)c1,82%
4,COc1cccc(C(=O)Nc2cc(-c3csc(-c4sc(NC(=O)NCCCC(=O)O)nc4N)n3)c(F)cc2F)c1,40%
5,CCC(O)CNC(=O)Nc1nc(N)c(-c2nc(-c3cc(NC(=O)c4cccc(OC)c4)c(F)cc3F)cs2)s1 (centres unmarked),104%
6,COc1cccc(C(=O)Nc2cc(-c3csc(-c4sc(NC(=O)NCP(=O)(O)O)nc4N)n3)c(F)cc2F)c1,48%
7,COc1cccc(C(=O)Nc2cc(-c3csc(-c4sc(NC(=O)NCCc5ccc(S(N)(=O)=O)cc5)nc4N)n3)c(F)cc2F)c1,25%
8,CCCCN(CCCC)CCCNC(=O)Nc1nc(N)c(-c2nc(-c3cc(NC(=O)c4cccc(OC)c4)c(F)cc3F)cs2)s1,81%

# Same assay, conditions: Homo sapiens, HUVEC, Inhibition of HUVEC Proliferation; 50 nM; crude combinatorial urea library; read-out: Inhibition @ 50 nM
row,Structure (SMILES),inhibition at 0.05 µM
1,COc1cccc(C(=O)Nc2cc(-c3noc(-c4sc(NC(=O)NCCCCCCN(C)C)nc4N)n3)c(F)cc2F)c1,-6%
2,COc1cccc(C(=O)Nc2cc(-c3noc(-c4sc(NC(=O)NCCc5ccc(S(N)(=O)=O)cc5)nc4N)n3)c(F)cc2F)c1,83%
3,COc1cccc(C(=O)Nc2cc(-c3noc(-c4sc(NC(=O)N[C@H](CO)Cc5c[nH]cn5)nc4N)n3)c(F)cc2F)c1,77%
4,COc1cccc(C(=O)Nc2cc(-c3noc(-c4sc(NC(=O)NCCCN5CCOCC5)nc4N)n3)c(F)cc2F)c1,80%
5,COc1cccc(C(=O)Nc2cc(-c3noc(-c4sc(NC(=O)NC(C)CN(C)C)nc4N)n3)c(F)cc2F)c1 (centres unmarked),27%
6,COc1cccc(C(=O)Nc2cc(-c3noc(-c4sc(NC(=O)NCCC(C)C)nc4N)n3)c(F)cc2F)c1,96%
7,COc1cccc(C(=O)Nc2cc(-c3noc(-c4sc(NC(=O)NCCNC(C)=O)nc4N)n3)c(F)cc2F)c1,75%
8,COc1cccc(C(=O)Nc2cc(-c3noc(-c4sc(NC(=O)NCc5ccc(N(C)C)cc5)nc4N)n3)c(F)cc2F)c1,48%
9,COc1cccc(C(=O)Nc2cc(-c3noc(-c4sc(NC(=O)NCc5ccc(S(N)(=O)=O)cc5)nc4N)n3)c(F)cc2F)c1,82%

# Same assay, conditions: Homo sapiens, HUVEC, Table I screening results; 150 nM; crude combinatorial amide library
row,Structure (SMILES),inhibition at 0.15 µM
1,COc1cc(Nc2nc(N)c(-c3nc(-c4cccc(NC(=O)CC(c5ccccc5)c5ccccc5)c4)cs3)s2)cc(OC)c1OC,10%
2,COc1cc(Nc2nc(N)c(-c3nc(-c4cccc(NC(=O)C(c5ccccc5)C5CCCC5)c4)cs3)s2)cc(OC)c1OC (centres unmarked),3%
